In patent publication US9073941B2, “Compounds and methods for treating tuberculosis infection” (Academia Sinica, priority 2010, dated 2015):

Each molecule was assayed against lipoamide dehydrogenase (Lpd) (Mycobacterium tuberculosis (strain ATCC 25618 / H37Rv), UniProt P9WHH9) (assay: Lipoamide Dehydrogenase (Lpd) Inhibition Assay). Details: not given.
Format: biochemical
Work on COc1ccc(NC(=O)CN(C)S(=O)(=O)c2cc(Br)cnc2N)cc1Cl [Compound 503] yielded an IC50 of 700 ± 80 nM. For CN(CC(=O)Nc1ccc(F)cc1)S(=O)(=O)c1cc(Br)cnc1N [Compound 504], the IC50 was 4300 ± 1210 nM. For CC(C)c1ccc(NC(=O)C2CCN(S(=O)(=O)c3cn(C(C)C)cn3)CC2)cc1 [Compound 509], the IC50 was 2870 ± 520 nM. CCOc1ccc(NC(=O)C2CCN(S(=O)(=O)c3cn(C(C)C)cn3)CC2)cc1 [Compound 520] showed an IC50 of 2170 ± 370 nM. With CC(C)n1cnc(S(=O)(=O)N2CCC(C(=O)Nc3ccc4c(c3)OCO4)CC2)c1 [Compound 530] the IC50 was 2070 ± 710 nM. In the case of Cc1ccc(NC(=O)C2CCN(S(=O)(=O)c3cn(C(C)C)cn3)CC2)cc1F [Compound 532], the IC50 is reported as 2850 ± 510 nM. In the case of CC(C)n1cnc(S(=O)(=O)N2CCC(C(=O)NCc3ccccc3)CC2)c1 [Compound 536], the IC50 is reported as 2690 ± 800 nM. Molecule CCc1ccc(NC(=O)C2CCN(S(=O)(=O)c3cn(CC)cn3)CC2)cc1 [Compound 539] has an IC50 of 4300 ± 1660 nM. In the case of Cc1cccc(CNC(=O)C2CCN(S(=O)(=O)c3cn(C(C)C)cn3)CC2)c1 [Compound 540], the IC50 is reported as 4180 ± 1090 nM. CCOc1ccc(NC(=O)C2CCN(S(=O)(=O)c3cn(CC)cn3)CC2)cc1 [Compound 543] showed an IC50 of 3970 ± 1130 nM. In the case of COc1cc(OC)c(NC(=O)C2CCN(S(=O)(=O)c3cn(C(C)C)cn3)CC2)cc1Cl [Compound 546], the IC50 is reported as 2850 ± 780 nM. CC(C)n1cnc(S(=O)(=O)N2CCC(C(=O)NCc3cccs3)CC2)c1 [Compound 549] gave an IC50 of 3420 ± 1330 nM. COc1cc(Cl)c(NC(=O)C2CCN(S(=O)(=O)c3cn(C(C)C)cn3)CC2)c(OC)c1 [Compound 552] gave an IC50 of 2870 ± 670 nM. CC(C)n1cnc(S(=O)(=O)N2CCC(C(=O)NCc3ccc(F)cc3)CC2)c1 [Compound 557] showed an IC50 of 3550 ± 1170 nM. CN(C(=O)c1ccc2c(c1)OCCO2)c1nc2c(s1)CCc1c-2cnn1C [Compound 1106] showed an IC50 of 2670 ± 230 nM.

Same assay, conditions: concentration required for 50% inhibition of LPD activity; DTNB detection, OD405 nm
COc1ccc(NC(=O)CN(C)S(=O)(=O)c2cc(Br)cnc2N)cc1OC [Compound 502] showed an IC50 of 840 ± 130 nM. For CC(C)c1ccc(NC(=O)CN(C)S(=O)(=O)c2cc(Br)cnc2N)cc1 [Compound 505], the IC50 was 840 ± 110 nM. Molecule Cc1ccc(CNC(=O)CN(C)S(=O)(=O)c2cc(Br)cnc2N)cc1 [Compound 506] has an IC50 of 3310 ± 490 nM. For CC(C)n1cnc(S(=O)(=O)N2CCC(C(=O)Nc3ccccc3)CC2)c1 [Compound 507], the IC50 was 2770 ± 690 nM. Cc1cccc(NC(=O)C2CCN(S(=O)(=O)c3cn(C(C)C)cn3)CC2)c1 [Compound 508] showed an IC50 of 2610 ± 820 nM. Molecule Cc1ccc(NC(=O)C2CCN(S(=O)(=O)c3cn(C(C)C)cn3)CC2)cc1C [Compound 510] has an IC50 of 2450 ± 210 nM. In the case of CCc1cccc(NC(=O)C2CCN(S(=O)(=O)c3cn(C(C)C)cn3)CC2)c1 [Compound 511], the IC50 is reported as 2550 ± 790 nM. CCc1ccc(NC(=O)C2CCN(S(=O)(=O)c3cn(C(C)C)cn3)CC2)cc1 [Compound 512] showed an IC50 of 2900 ± 710 nM. CC(C)n1cnc(S(=O)(=O)N2CCC(C(=O)Nc3ccc(S(N)(=O)=O)cc3)CC2)c1 [Compound 513] was tested, and the IC50 was 4120 ± 1810 nM. Cc1cc(C)cc(NC(=O)C2CCN(S(=O)(=O)c3cn(C(C)C)cn3)CC2)c1 [Compound 514] showed an IC50 of 2670 ± 570 nM. CSc1cccc(NC(=O)C2CCN(S(=O)(=O)c3cn(C(C)C)cn3)CC2)c1 [Compound 515] showed an IC50 of 4810 ± 840 nM. Molecule COc1cccc(NC(=O)C2CCN(S(=O)(=O)c3cn(C(C)C)cn3)CC2)c1 [Compound 516] has an IC50 of 2460 ± 760 nM. Molecule CC(C)n1cnc(S(=O)(=O)N2CCC(C(=O)Nc3cccc(F)c3)CC2)c1 [Compound 517] has an IC50 of 3610 ± 980 nM. CC(C)n1cnc(S(=O)(=O)N2CCC(C(=O)Nc3cccc(Cl)c3)CC2)c1 [Compound 518] showed an IC50 of 3830 ± 780 nM. In the case of CC(C)n1cnc(S(=O)(=O)N2CCC(C(=O)Nc3cccc(Br)c3)CC2)c1 [Compound 519], the IC50 is reported as 2760 ± 590 nM. Work on COc1ccc(NC(=O)C2CCN(S(=O)(=O)c3cn(C(C)C)cn3)CC2)cc1 [Compound 521] yielded an IC50 of 2310 ± 360 nM. CC(C)n1cnc(S(=O)(=O)N2CCC(C(=O)Nc3ccc(Cl)cc3)CC2)c1 [Compound 522] gave an IC50 of 2940 ± 720 nM. CC(C)n1cnc(S(=O)(=O)N2CCC(C(=O)Nc3ccc4c(c3)OCCO4)CC2)c1 [Compound 523] was tested, and the IC50 was 1600 ± 480 nM. Molecule CC(C)n1cnc(S(=O)(=O)N2CCC(C(=O)Nc3ccccc3F)CC2)c1 [Compound 524] has an IC50 of 2670 ± 650 nM. For CCOC(=O)c1ccc(NC(=O)C2CCN(S(=O)(=O)c3cn(C(C)C)cn3)CC2)cc1 [Compound 525], the IC50 was 2440 ± 580 nM. Cc1ccc(NC(=O)C2CCN(S(=O)(=O)c3cn(C(C)C)cn3)CC2)cc1N(C)C [Compound 526] gave an IC50 of 2790 ± 720 nM. CC(C)n1cnc(S(=O)(=O)N2CCC(C(=O)Nc3ccc(F)c(Cl)c3)CC2)c1 [Compound 527] gave an IC50 of 3130 ± 790 nM. COc1ccc(NC(=O)C2CCN(S(=O)(=O)c3cn(C(C)C)cn3)CC2)cc1OC [Compound 528] was tested, and the IC50 was 1830 ± 140 nM. Cc1ccc(C)c(NC(=O)C2CCN(S(=O)(=O)c3cn(C(C)C)cn3)CC2)c1 [Compound 529] showed an IC50 of 3920 ± 2470 nM. Cc1cc(NC(=O)C2CCN(S(=O)(=O)c3cn(C(C)C)cn3)CC2)ccc1Br [Compound 531] was tested, and the IC50 was 4110 ± 1590 nM. Cc1ccc(NC(=O)C2CCN(S(=O)(=O)c3cn(C(C)C)cn3)CC2)cc1Cl [Compound 533] showed an IC50 of 2640 ± 190 nM. In the case of COc1ccc(NC(=O)C2CCN(S(=O)(=O)c3cn(C(C)C)cn3)CC2)cc1Cl [Compound 534], the IC50 is reported as 1690 ± 380 nM. In the case of CC(C)n1cnc(S(=O)(=O)N2CCC(C(=O)Nc3cccc(-c4ccno4)c3)CC2)c1 [Compound 535], the IC50 is reported as 2120 ± 210 nM. Work on COc1ccc(NC(=O)C2CCN(S(=O)(=O)c3cn(C(C)C)cn3)CC2)c(OC)c1 [Compound 537] yielded an IC50 of 3400 ± 1600 nM. CC(C)n1cnc(S(=O)(=O)N2CCC(C(=O)Nc3ccc(Br)cc3F)CC2)c1 [Compound 538] gave an IC50 of 2540 ± 570 nM. With CCn1cnc(S(=O)(=O)N2CCC(C(=O)Nc3ccc(OC)cc3)CC2)c1 [Compound 541] the IC50 was 3310 ± 1220 nM. Molecule Cc1ccc2nc(NC(=O)C3CCN(S(=O)(=O)c4cn(C(C)C)cn4)CC3)sc2c1 [Compound 542] has an IC50 of 5060 ± 1090 nM. For CCn1cnc(S(=O)(=O)N2CCC(C(=O)Nc3ccc(C)c(Cl)c3)CC2)c1 [Compound 544], the IC50 was 4550 ± 1270 nM. Work on CCn1cnc(S(=O)(=O)N2CCC(C(=O)Nc3ccc4c(c3)OCCO4)CC2)c1 [Compound 545] yielded an IC50 of 2690 ± 560 nM. Work on CC(C)n1cnc(S(=O)(=O)N2CCC(C(=O)NCCCc3ccccc3)CC2)c1 [Compound 547] yielded an IC50 of 2670 ± 600 nM. In the case of CCn1cnc(S(=O)(=O)N2CCC(C(=O)Nc3ccc(OC)c(Cl)c3)CC2)c1 [Compound 548], the IC50 is reported as 2350 ± 520 nM. Work on CCOc1ccc2nc(NC(=O)C3CCN(S(=O)(=O)c4cn(C(C)C)cn4)CC3)sc2c1 [Compound 550] yielded an IC50 of 2130 ± 240 nM. Molecule COc1ccc2nc(NC(=O)C3CCN(S(=O)(=O)c4cn(C(C)C)cn4)CC3)sc2c1 [Compound 551] has an IC50 of 2280 ± 110 nM. For CCn1cnc(S(=O)(=O)N2CCC(C(=O)Nc3cccc(-c4ccno4)c3)CC2)c1 [Compound 553], the IC50 was 2680 ± 990 nM. Work on CCOc1ccccc1CNC(=O)C1CCN(S(=O)(=O)c2cn(C(C)C)cn2)CC1 [Compound 554] yielded an IC50 of 3420 ± 880 nM. Molecule CC(C)n1cnc(S(=O)(=O)N2CCC(C(=O)NCc3ccc(Br)cc3)CC2)c1 [Compound 555] has an IC50 of 3200 ± 1050 nM. CC(C)n1cnc(S(=O)(=O)N2CCC(C(=O)NCc3ccc(Cl)cc3)CC2)c1 [Compound 556] gave an IC50 of 3750 ± 1010 nM. COc1ccc(CNC(=O)C2CCN(S(=O)(=O)c3cn(C(C)C)cn3)CC2)cc1 [Compound 558] gave an IC50 of 3330 ± 800 nM. Molecule CC(C)n1cnc(S(=O)(=O)N2CCC(C(=O)NC3CC3)CC2)c1 [Compound 559] has an IC50 of 2990 ± 1390 nM. Molecule CC(C)Oc1ccc(CNC(=O)C2CCN(S(=O)(=O)c3cn(C(C)C)cn3)CC2)cc1 [Compound 560] has an IC50 of 3860 ± 900 nM. In the case of CCOc1ccc(CNC(=O)C2CCN(S(=O)(=O)c3cn(C(C)C)cn3)CC2)cc1OC [Compound 561], the IC50 is reported as 3020 ± 1780 nM. For CCOc1ccc2nc(NC(=O)C3CCN(S(=O)(=O)c4cn(CC)cn4)CC3)sc2c1 [Compound 562], the IC50 was 3500 ± 470 nM. CCn1cnc(S(=O)(=O)N2CCC(C(=O)Nc3nc4ccc(OC)cc4s3)CC2)c1 [Compound 563] was tested, and the IC50 was 3020 ± 870 nM. COc1ccc(CCNC(=O)C2CCN(S(=O)(=O)c3cn(C(C)C)cn3)CC2)cc1OC [Compound 564] gave an IC50 of 2220 ± 520 nM. Molecule CCSc1nnc(NC(=O)C2CCN(S(=O)(=O)c3cn(CC)cn3)CC2)s1 [Compound 565] has an IC50 of 3060 ± 470 nM. CCn1cnc(S(=O)(=O)N2CCC(C(=O)NCCc3nc4cc(C)ccc4[nH]3)CC2)c1 [Compound 566] was tested, and the IC50 was 3910 ± 790 nM. Cn1c(=O)nc2[nH]nc(/C=C/c3ccccc3)nc-2c1=O [Compound 622] showed an IC50 of 2160 ± 260 nM. Work on COc1ccc2cc(CNc3ccc(O)cc3)c(O)nc2c1 [Compound 801] yielded an IC50 of 2250 ± 160 nM. CCOc1ccc2cc(CNc3ccc(O)cc3)c(O)nc2c1 [Compound 802] gave an IC50 of 3340 ± 260 nM. Molecule Oc1ccc(NCc2cc3ccccc3nc2O)cc1 [Compound 803] has an IC50 of 1620 ± 180 nM. Work on Oc1ccc(NCc2cc3cc4c(cc3nc2O)OCO4)cc1 [Compound 804] yielded an IC50 of 4670 ± 570 nM. Molecule Cc1ccc2cc(CNc3ccc(O)cc3)c(O)nc2c1 [Compound 805] has an IC50 of 1640 ± 140 nM. In the case of CCc1ccc2nc(O)c(CNc3ccc(N(C)C)cc3)cc2c1 [Compound 806], the IC50 is reported as 4730 ± 910 nM. For CCOc1ccc2nc(O)c(CNc3ccc4[nH]ncc4c3)cc2c1 [Compound 807], the IC50 was 4540 ± 770 nM. In the case of COCCN(C(=O)c1cccs1)c1nc2c(s1)CCc1c-2cnn1C [Compound 1101], the IC50 is reported as 1620 ± 240 nM. With CCCN(C(=O)c1ccc(COC)o1)c1nc2c(s1)CCc1c-2cnn1C [Compound 1102] the IC50 was 3160 ± 430 nM. CN(C(=O)Cc1cccs1)c1nc2c(s1)CCc1c-2cnn1C [Compound 1103] gave an IC50 of 2890 ± 460 nM. COCCN(C(=O)c1nsc(Cl)c1Cl)c1nc2c(s1)CCc1c-2cnn1C [Compound 1104] gave an IC50 of 2240 ± 260 nM. CN(C(=O)c1ccc(Cn2cccn2)o1)c1nc2c(s1)CCc1c-2cnn1C [Compound 1105] was tested, and the IC50 was 3640 ± 510 nM. Molecule COC1CCCC(C(=O)N(CC2CCCO2)c2nc3c(s2)CCc2c-3cnn2C)C1 (stereo not shown) [Compound 1107] has an IC50 of 3220 ± 500 nM. For CCN(C(=O)C1CCCO1)c1nc2c(s1)CCc1c-2cnn1C (stereo not shown) [Compound 1108], the IC50 was 3760 ± 190 nM.

Each molecule was assayed against Mtb PDH (Lpd+DlaT+AceE) (Mycobacterium tuberculosis (strain ATCC 25618 / H37Rv), UniProt P9WHH9) (assay: PDH Inhibition Activity). Details: concentration required for 50% inhibition of PDH activity; fluorescence ex 360 nm / em 460 nm; read-out: PDH IC50.
Format: biochemical
Nc1c(Br)cc(Br)c2nsnc12 [Compound 202] showed an IC50 of 1690 nM.
